In assay [1] the target is T1, β-secretase (Homo sapiens, UniProt P56817).
T1 construct: purified from a natural source, such as human brain tissue or human 293 cells; endogenous in cells
Nature of the assay: β-secretase assay in the presence of common protease inhibitors (MBP-C125 cleavage, SW-192 ELISA). In kind it is biochemical. The settings on record: for IC50: Max Conc not given. Background: ELISA stands for enzyme-linked immunosorbent assay.

The test system of a further assay is APP. The assay can be described thus: Proteolytic activity of β-secretase as a function of pH. In kind it is biochemical, human.
Assay [2] has as its target T1, β-secretase. The assay can be described thus: Binding of substantially purified β-secretase activity to immobilized lectins. The settings on record: immobilized lectin; Table 2. On the procedure:
Glycosylation of β-secretase has been investigated using various immobilized lectins, and ability of substantially purified β-secretase activity to bind to them was determined. […] A "-" sign signifies less than 20% binding, "+" between […] binding, "++" between 50-75% binding, and "+++" >75% binding.

What is called inhibition is how much of the control response was suppressed. As usually defined, the IC50 is the concentration needed to halve the response being measured.

T1 sequence (P56817 46-501): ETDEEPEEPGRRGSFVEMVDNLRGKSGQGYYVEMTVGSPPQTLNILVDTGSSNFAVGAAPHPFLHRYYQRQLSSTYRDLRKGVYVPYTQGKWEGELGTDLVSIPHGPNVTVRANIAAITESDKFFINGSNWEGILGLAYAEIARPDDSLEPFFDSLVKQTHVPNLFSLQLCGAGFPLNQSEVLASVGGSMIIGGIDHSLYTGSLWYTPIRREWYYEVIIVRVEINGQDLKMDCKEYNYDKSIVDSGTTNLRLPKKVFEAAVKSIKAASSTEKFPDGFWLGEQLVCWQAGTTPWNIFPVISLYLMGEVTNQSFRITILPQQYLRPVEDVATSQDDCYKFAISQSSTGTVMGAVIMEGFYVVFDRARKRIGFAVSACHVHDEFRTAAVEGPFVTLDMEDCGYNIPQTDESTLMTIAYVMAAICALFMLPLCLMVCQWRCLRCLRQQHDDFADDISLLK

As to `O=c1oc(Cl)c(Cl)c2ccccc12` [3,4-dichloroisocoumarin], the inhibition at 500 µM on β-secretase [1] (Max Conc 0.5 mM, pH 5.5) is less than 25%.

With `CCCCC(NC(=O)C=[N+]=[N-])C(=O)OC` (stereo not drawn) [diazoacetylnorleucylmethyl ester], on β-secretase [1] (pH 5.5), the IC50 was more than 5 mM. In the case of `c1cnc2c(c1)ccc1ncccc12` [m-phenanthroline], the “inhibition of β-secretase activity (in words)” value on β-secretase [1] is on record as “also does so”. For the same molecule, at β-secretase [1] (pH 5.5), the IC50 came out at 7 mM.

Take `c1cnc2c(c1)ccc1cccnc12` [o-phenanthroline]: the “inhibition of β-secretase activity (in words)” value on β-secretase [1] was “inhibits poorly”. Also, on β-secretase [1] (pH 5.5), the IC50 is 7 mM.

As to “β-secretase: enzyme which cleaves APP at the amino-terminus of β-amyloid peptide, purified from human 293 cells or human brain”, the “pH of peak proteolytic activity” value with APP lay within 5 to 5.5. For the same molecule, in the assay with APP (pH 7.5 and above), the proteolytic activity entry was “very low activity”.

B1: peanut (PNA): lectin (protein, UniProt P02872 24-273, looked up)
Galactose-binding lectin: AETVSFNFNSFSEGNPAINFQGDVTVLSNGNIQLTNLNKVNSVGRVLYAMPVRIWSSATGNVASFLTSFSFEMKDIKDYDPADGIIFFIAPEDTQIPAGSIGGGTLGVSDTKGAGHFVGVEFDTYSNSEYNDPPTDHVGIDVNSVDSVKTVPWNSVSGAVVKVTVIYDSSTKTLSVAVTNDNGDITTIAQVVDLKAKLPERVKFGFSASGSLGGRQIHLIRSWSFTSTLITTTRRSIDNNEKKIMNMASA
Consider B1, for which the “β-Secretase Binding” value with β-secretase [2] is on record as “+ (between 24-40% binding)”.
